EP4417190A1, “CYCLIC PEPTIDES WITH ANTI-AGING EFFICACY” (Lipotrue, S.L., priority 2023, dated 2024)

Legend:
[1] = MTT assay, toxicity on HDFa cells; assay type: cell-based; conditions: human, normalized to non-treated cells, read-out: Cell viability
Experimental: (§1) Toxicity of cycled peptides A and B was analyzed on human dermal fibroblasts (HDFa) and adult human epidermal keratinocytes HEKa cells by MTT assay. A stock solution of the peptide was prepared in distilled water at 25 mg/mL. This stock solution was further diluted to obtain the final working concentrations (0.001, 0.005, 0.01, 0.05, 0.1 and 0.5 mg/mL) in the corresponding culture medium. Untreated cells were used as negative control samples (Basal).
(§2) Briefly, HEKa and HDFa cells were seeded in 96-well plates at a concentration of 1×10^5 cells/mL in a final volume of 200 µL of medium (20,000 cells/well). HEKa cells were incubated in Dermal Cell Basal Medium supplemented with the Keratinocytes Growth Kit; and HDFa cells were cultured in Medium 106 supplemented with 2% of LSGS. Cells were incubated at 37°C, 5% CO2 and saturated humidity.
(§3) After 24 h of incubation, cells were treated with different concentrations of each peptide (0.001, 0.005, 0.01, 0.05, 0.1 and 0.5 mg/mL) in triplicates, for MTT evaluation. After 24 h of treatment with the peptide, medium was completely removed, and 100 µL of 0.5 mg/mL MTT solution in supplemented medium were added to each well and cells were incubated at 37°C for 3 h. After incubating with MTT, the medium of each well was aspirated and 150 µL of DMSO were added in order to solubilise the formazan crystals formed. The plates were placed on a shaker for 5 minutes for complete solubilisation of the crystals and then the absorbance at 570 nm of each well was determined, using the microplate reader Multiskan FC, which is directly proportional to the number of living cells in culture.
(§4) Absorbance values were normalized using the data obtained for non-treated cells (control), obtaining the % of viability shown in Tables 1 and 2. Each condition was performed in triplicate (n=3) in 3 independent experiments (N=3).
(§5) Concentrations of peptide for which viability is above 80% are considered safe for efficacy testing. On the contrary, concentrations for which viability goes below 80% are considered potentially toxic and are not used for efficacy testing purposes. Table 1: Toxicity of cycled peptides on HDFa cells.

[2] = MTT assay, toxicity on HEKa cells; assay type: cell-based; conditions: human, normalized to non-treated cells, read-out: Cell viability
Experimental: as §1, §2, §3, §4, §5

[3] = test system: TGFBR3; assay: RT-qPCR expression of aging-related gene TGFBR3 in HEKa; assay type: cell-based, human; conditions: 0.01 mg/mL, 24 h
Experimental: (§6) Then, cells were lysed, and RNA was extracted (RNeasy mini kit, Qiagen). Purified RNAs were retro-transcribed (High-capacity cDNA reverse transcription kit, Applied Biosystems). RT-qPCR was performed with the panel of TaqMan assay probes (Thermo Fisher Scientific) using StepOne plus Real time PCR instrument. […] The obtained data were analyzed using the ΔΔCt method, which provides the target gene expression values as fold changes in the treated sample compared with an untreated basal sample. Both samples were normalized with the relative expression of the housekeeping gene GAPDH.

[4] = test system: FN; assay: RT-qPCR expression of aging-related gene FN in HEKa; assay type: cell-based, human; conditions: 0.01 mg/mL, 24 h
Experimental: as §6

[5] = test system: ITGB1; assay: RT-qPCR expression of aging-related gene ITGB1 in HEKa; assay type: cell-based, human; conditions: 0.01 mg/mL, 24 h
Experimental: as §6

[6] = test system: ITGA5; assay: RT-qPCR expression of aging-related gene ITGA5 in HDFa; assay type: cell-based, human; conditions: 0.05 mg/mL, 6 h
Experimental: as §6

[7] = test system: ITGB1; assay: RT-qPCR expression of aging-related gene ITGB1 in HDFa; assay type: cell-based, human; conditions: 0.05 mg/mL, 6 h
Experimental: as §6

[8] = test system: human immunoglobulin binding protein (BiP); assay: BiP ELISA in HEKa cell lysates; assay type: cell-based; conditions: 24 hours
Experimental: The effect of cycled peptides was determined on the production of human immunoglobulin binding protein (BiP) in human epidermal keratinocytes from adult (HEKa), through quantification of this protein in vitro in cell culture lysates by enzyme linked immunosorbent assay (ELISA).
In this study the BiP levels in human epidermal keratinocytes treated with cycled peptide B was evaluated, through quantification of this protein in vitro in cell culture lysates by enzyme linked immunosorbent assay (ELISA).
HEKa cells were seeded in a 24-well plate at a density of 50.000 cells/well and maintained at standard culture conditions (Supplemented Dermal Cell Basal Medium, DCBM; 37°C, 95% RH, 5% CO2) for 24 hours. Then, keratinocytes were treated for 24 hours with or without the presence of 0.01 or 0.05 mg/mL of cycled peptide A or peptide B. After treatment, cells were lysed with RIPA buffer and lysates were collected and centrifuged in order to eliminate cell debris and were kept at -80°C until they were used for BiP quantification with BiP ELISA Kit according to manufacturer instructions. In order to normalize data, total protein content of each sample was quantified through Micro BCA Protein Assay kit according to manufacturer instructions.
Each condition was performed at least in triplicate (n=3) in three independent experiments (N=3). For all data, mean values of the different experiments and SEM values are shown. All data was first normalized as follows: BiP levels/cell = (BiP levels per well)/(Total protein (BCA) per well) [formula] % vs Basal = (BiP per cell in treated samples)/(Bip per cell in untreated samples) × 100 [formula]
Statistical data analysis was performed using Student t-test by comparison of % BiP expression from cells untreated (Basal) vs. treated with cycled peptide samples, *p<0.05, **p<0.01, ***p<0.001.

[9] = test system: Caspase 3 (CASP3); assay: Caspase 3 activity under BFA-induced endoplasmic reticulum stress in HEKa (Caspase-Glo 3/7); assay type: cell-based, human; conditions: BFA-induced ER stress, 24 h, vs BFA-treated cells (Figure 5)
Experimental: Caspase 3 (CASP3) is a protein member of the cysteine-aspartic acid protease family. Sequential activation of caspases plays a central role in the execution-phase of cell apoptosis. It was evaluated the effect of the cycled peptide B on the caspase 3 activity in human epidermal keratinocytes from adult (HEKa) subjected to endoplasmic reticulum (ER) stress.
HEKa cells were seeded in a black 96-well plate at a density of 18.000 cell/well in Dermal Cell Basal Medium (DCBM) and incubated at 37 °C in a humidified atmosphere with 5% CO2. After 24 h of incubation, cells were treated with 0.15 µg/mL BFA alone or in the presence of 0.005 mg/mL of the cycled peptide B and returned to the incubator for 24 h more. Untreated cells (Basal) were used as negative control samples. 24 hours after treatment, caspase 3 activity was evaluated using Caspase-Glo® 3/7 Assay System, following manufacturer instructions.
Each condition was performed at least in triplicates (n=3) in three independent experiments (N=3). For all data, mean values of relative fluorescence units (RFU) of the different experiments and SEM values are shown. All data was normalized as follows: % vs BFA = (RFU treated cells)/(RFU BFA treated cells) × 100 [formula]
Statistical data analysis was performed using Student t-test by comparison of % activity from test substance vs BFA-treated cells, *p<0.05, **p<0.01, ***p<0.001.

CC(C)C[C@@H]1NC(=O)[C@H](C)NC(=O)[C@H](Cc2c[nH]cn2)NC(=O)[C@H](Cc2c[nH]c3ccccc23)NC(=O)[C@H](Cc2ccccc2)NC(=O)[C@H](CCCNC(=N)N)NC1=O [Peptide B, cyclo-Phe-Trp- His- Ala-Leu-Arg]
viability at 24 h ([1]; 0.001 mg/mL peptide): 100%
viability at 24 h ([1]; 0.005 mg/mL peptide): 99.8%
viability at 24 h ([1]; 0.01 mg/mL peptide): 92.9%
viability at 24 h ([1]; 0.05 mg/mL peptide): 91.9%
viability at 24 h ([1]; 0.1 mg/mL peptide): 88.2%
viability at 24 h ([1]; 0.5 mg/mL peptide): 73.7%
viability at 24 h ([2]; 0.001 mg/mL peptide): 102%
viability at 24 h ([2]; 0.005 mg/mL peptide): 103%
viability at 24 h ([2]; 0.01 mg/mL peptide): 107%
viability at 24 h ([2]; 0.05 mg/mL peptide): 91.4%
viability at 24 h ([2]; 0.1 mg/mL peptide): 85.8%
viability at 24 h ([2]; 0.5 mg/mL peptide): 61.8%
Fold change vs. Basal [3]: 1.23
Mean normalized expression ([3]; normalized to GAPDH): 2.54E-02
Fold change vs. Basal [4]: 1.58
Mean normalized expression ([4]; normalized to GAPDH): 3.28E-01
Fold change vs. Basal [5]: 1.65
Mean normalized expression ([5]; normalized to GAPDH): 7.16E-01
Fold change vs. Basal [6]: 1.31
Mean normalized expression ([6]; normalized to GAPDH): 2.57E-01
Fold change vs. Basal [7]: 1.66
Mean normalized expression ([7]; normalized to GAPDH): 1.02E+00
% Mean (BiP per cell, % vs Basal) ([8]; 0.01 mg/mL): 110.18%
% Mean (BiP per cell, % vs Basal) ([8]; 0.05 mg/mL): 123.74%
increase of BiP levels, increment when compared with untreated cells (Basal) ([8]; concentration dependent): up to 24%
caspase 3 activity [9]: significantly reduce
